Measured values published in patent US20200369728A1, “PEPTIDOMIMETIC MACROCYCLES AND USES THEREOF” (Aileron Therapeutics, Inc., priority 2015, published 2020).
Bridge positions count the residues as written; N and C are the ends. Square brackets hold non-standard residues; d marks the D form. Peptide text beside a SMILES is read from it. R8 = C=CCCCCCC[C@@](C)(N)C(=O)O; S5 = C=CCCC[C@](C)(N)C(=O)O; Aib = CC(C)(N)C(=O)O

Key:
SJSA-1 cells = assay: Cell lysis by peptidomimetic macrocycles (LDH release); format: cell-based; conditions: SJSA-1, 1 h
How it was run: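 SJSA-1 cells plated the day before, switched to RPMI with 1% FBS, then exposed 1 h at 37 °C to macrocycle at final 50 μM to 6.25 μM in 0.5% DMSO. LDH released into the supernatant was measured by kit. Controls: 0.5% DMSO (non-lytic), 10 μM melittin and 1% Triton X-100 (lytic).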

Caspase 3 = Caspase 3 detection assay in SJSA1 cells; format: cell-based; conditions: SJSA1, 48 h, Caspase 3 activation over DMSO-treated cells
RKO = assay: Cell viability assay (MTT), RKO; conditions: read-out: RKO EC50 (72 h)

SMILES	6.25 μM % Lysed cells (1 h LDH) (SJSA-1 cells) [%]	25 μM % Lysed cells (1 h LDH) (SJSA-1 cells) [%]	50 μM % Lysed cells (1 h LDH) (SJSA-1 cells) [%]	caspase 0.3 μM (Caspase 3)	caspase 3 μM (Caspase 3)	caspase 10 μM (Caspase 3)	caspase 30 μM (Caspase 3)	EC50 (RKO) [µM]	caspase 1 μM (Caspase 3)
CC[C@H](C)[C@H](NC(=O)[C@H](C)NC(=O)[C@H](C)NC(=O)[C@]1(C)CCCC=CCCCCCC[C@@](C)(NC(=O)[C@H](Cc2ccccc2)NC(=O)[C@@H](NC(=O)[C@H](CC(C)C)NC(C)=O)[C@@H](C)O)C(=O)N[C@@H](C)C(=O)N[C@@H](Cc2ccc(O)cc2)C(=O)N[C@@H](Cc2c[nH]c3ccccc23)C(=O)N[C@@H](C)C(=O)N[C@@H](CCC(N)=O)C(=O)N[C@@H](CC(C)C)C(=O)N1)C(=O)N[C@H](CC(C)C)C(N)=O (single isomer, unassigned) [compound 81]	1	0	0	1	1	6	21	5 to 15	–
CC(=O)N[C@@H](CC(C)C)C(=O)N[C@H](C(=O)N[C@@H](Cc1ccccc1)C(=O)N[C@]1(C)CCCCCCC=CCCC[C@@](C)(C(=O)N[C@@H](CO)C(=O)N[C@@H](CC(C)C)C(=O)N[C@@H](C)C(N)=O)NC(=O)[C@H](CC(C)C)NC(=O)[C@H](CCC(N)=O)NC(=O)[C@H](C)NC(=O)[C@H](Cc2c[nH]c3ccccc23)NC(=O)[C@H](Cc2ccc(O)cc2)NC(=O)[C@H](C)NC1=O)[C@@H](C)O (single isomer, unassigned) [compound 118]	4	2	4	1	2	18	27	< 5	–
CC(=O)N[C@@H](CC(C)C)C(=O)N[C@H](C(=O)N[C@@H](Cc1ccccc1)C(=O)N[C@]1(C)CCCCCCC=CCCC[C@@](C)(C(=O)N[C@@H](CO)C(=O)N[C@@H](Cc2c[nH]c3ccccc23)C(=O)N[C@@H](C)C(N)=O)NC(=O)[C@H](CC(C)C)NC(=O)[C@H](CCC(N)=O)NC(=O)[C@H](C)NC(=O)[C@H](Cc2c[nH]c3ccccc23)NC(=O)[C@H](Cc2ccc(O)cc2)NC(=O)[C@H](C)NC1=O)[C@@H](C)O (single isomer, unassigned) [compound 120]	0	0	6	2	11	20	30	< 5	–
CC(=O)N[C@@H](CC(C)C)C(=O)N[C@H](C(=O)N[C@@H](Cc1ccccc1)C(=O)N[C@]1(C)CCCCCCC=CCCC[C@@](C)(C(=O)N[C@@H](CO)C(=O)N[C@@H](C)C(=O)N[C@@H](C)C(N)=O)NC(=O)[C@H](CC2CCCCC2)NC(=O)[C@H](CCC(N)=O)NC(=O)[C@H](C)NC(=O)[C@H](Cc2c[nH]c3ccccc23)NC(=O)[C@H](Cc2ccc(O)cc2)NC(=O)[C@H](CCC(=O)O)NC1=O)[C@@H](C)O (single isomer, unassigned) [compound 148]	0	−1	0	1	11	23	31	15 to 30	–
CC(=O)N[C@@H](CC(C)C)C(=O)N[C@H](C(=O)N[C@@H](Cc1ccccc1)C(=O)N[C@]1(C)CCCCCCC=CCCC[C@@](C)(C(=O)N[C@@H](CO)C(=O)N[C@@H](C)C(=O)N[C@@H](C)C(N)=O)NC(=O)[C@H](C2CCCC2)NC(=O)[C@H](CCC(N)=O)NC(=O)[C@H](C)NC(=O)[C@H](Cc2c[nH]c3ccccc23)NC(=O)[C@H](Cc2ccc(O)cc2)NC(=O)[C@H](CCC(=O)O)NC1=O)[C@@H](C)O (single isomer, unassigned) [compound 150]	−1	0	2	–	–	–	–	15 to 30	–
CC(=O)N[C@@H](CC(C)C)C(=O)N[C@H](C(=O)N[C@@H](Cc1ccc(F)c(F)c1)C(=O)N[C@]1(C)CCCCCCC=CCCC[C@@](C)(C(=O)N[C@@H](CO)C(=O)N[C@@H](C)C(=O)N[C@@H](C)C(N)=O)NC(=O)[C@H](CC(C)C)NC(=O)[C@H](CCC(N)=O)NC(=O)[C@H](C)NC(=O)[C@H](Cc2c[nH]c3ccccc23)NC(=O)[C@H](Cc2ccc(O)cc2)NC(=O)[C@H](CCC(=O)O)NC1=O)[C@@H](C)O (single isomer, unassigned) [compound 158]	0	−2	–	1	1.67	5	16.33	> 30	–
CC[C@H](C)[C@H](NC(=O)[C@H](C)NC(=O)[C@H](C)NC(=O)[C@]1(C)CCCC=CCCCCCC[C@@](C)(NC(=O)[C@H](Cc2ccccc2)NC(=O)[C@@H](NC(=O)[C@H](CCC(=O)O)NC(C)=O)[C@@H](C)O)C(=O)N[C@@H](CCC(=O)O)C(=O)N[C@@H](Cc2c[nH]cn2)C(=O)N[C@@H](Cc2c[nH]c3ccccc23)C(=O)N[C@@H](C)C(=O)N[C@@H](CCC(N)=O)C(=O)N[C@@H](CC(C)C)C(=O)N1)C(=O)N[C@H](C)C(N)=O (single isomer, unassigned) [compound 175]	3	1	0	1	5	12	21	> 30	–
CC(=O)N[C@@H](CC(C)C)C(=O)N[C@H](C(=O)N[C@@H](Cc1ccccc1)C(=O)N[C@]1(C)CCCCCCC=CCCC[C@@](C)(C(=O)N[C@@H](C)C(=O)N[C@@H](C)C(=O)N[C@@H](Cc2ccccc2)C(=O)N[C@H](C)C(N)=O)NC(=O)[C@H](CC(C)C)NC(=O)[C@H](CCC(N)=O)NC(=O)[C@H](C)NC(=O)[C@H](Cc2c[nH]c3ccccc23)NC(=O)[C@H](Cc2ccc(O)cc2)NC(=O)[C@H](CCC(=O)O)NC1=O)[C@@H](C)O (single isomer, unassigned) [compound 219]	0	−1	2	1	5	17	34	5 to 15	–
CC(=O)N[C@@H](CC(C)C)C(=O)N[C@H](C(=O)N[C@@H](Cc1ccccc1)C(=O)N[C@]1(C)CCCCCCC=CCCC[C@@](C)(C(=O)N[C@@H](C)C(=O)N[C@@H](C)C(=O)N[C@@H](C)C(=O)N[C@@H](C)C(=O)N[C@@H](C)C(=O)N[C@@H](C)C(=O)N[C@H](C)C(N)=O)NC(=O)[C@H](CC(C)C)NC(=O)[C@H](CCC(N)=O)NC(=O)[C@H](C)NC(=O)[C@H](Cc2c[nH]c3ccccc23)NC(=O)[C@H](Cc2ccc(O)cc2)NC(=O)[C@H](C)NC1=O)[C@@H](C)O (single isomer, unassigned) [compound 316]	0	0	1	6.5	21	32	32.5	< 5	10.5
CC(=O)N[C@@H](C)C(=O)N[C@@H](C)C(=O)N[C@@H](CC(C)C)C(=O)N[C@H](C(=O)N[C@@H](Cc1ccccc1)C(=O)N[C@]1(C)CCCCCCC=CCCC[C@@](C)(C(=O)N[C@@H](CO)C(=O)N[C@@H](C)C(=O)N[C@@H](C)C(=O)N[C@@H](C)C(=O)N[C@H](C)C(N)=O)NC(=O)[C@H](CC2CCC2)NC(=O)[C@H](CCC(N)=O)NC(=O)[C@H](C)NC(=O)[C@H](Cc2c[nH]c3ccccc23)NC(=O)[C@H](Cc2ccc(O)cc2)NC(=O)[C@H](CCC(=O)O)NC1=O)[C@@H](C)O (single isomer, unassigned) [compound 358]	–	–	–	1	3	6	24	15 to 30	2
CC(=O)N[C@@H](CC(C)C)C(=O)N[C@H](C(=O)N[C@@H](Cc1ccccc1)C(=O)N[C@]1(C)CCCCCCC=CCCC[C@@](C)(C(=O)N[C@@H](CO)C(=O)N[C@@H](C)C(=O)NC(C)(C)C(N)=O)NC(=O)[C@H](CC(C)C)NC(=O)[C@H](CCC(N)=O)NC(=O)[C@H](C)NC(=O)[C@H](Cc2c[nH]c3ccccc23)NC(=O)[C@H](Cc2ccc(O)cc2)NC(=O)[C@H](C)NC1=O)[C@@H](C)O [compound 10] (Ac-LTF[R8]AYWAQL[S5]SA[Aib]-NH2; staple 4-11)	–	–	–	1	1	17	32	5 to 15	–
CC(=O)N[C@@H](CC(C)C)C(=O)N[C@H](C(=O)N[C@@H](Cc1ccccc1)C(=O)N[C@]1(C)CCCCCCC=CCCC[C@@](C)(C(=O)N[C@@H](C)C(=O)N[C@@H](Cc2c[nH]cn2)C(=O)N[C@@H](Cc2ccccc2)C(=O)N[C@@H](C)C(N)=O)NC(=O)[C@H](CC(C)C)NC(=O)[C@H](CCC(N)=O)NC(=O)[C@H](C)NC(=O)[C@H](Cc2c[nH]c3ccccc23)NC(=O)[C@H](Cc2ccc(O)cc2)NC(=O)[C@H](C)NC1=O)[C@@H](C)O [compound 50] (Ac-LTF[R8]AYWAQL[S5]AHFA-NH2; staple 4-11)	–	–	–	–	8	29	29	< 5	–
